Source: patent publication US11174226B2, “Azetidinimines as carbapenemases inhibitors” (priority 2015, dated 2021)

Experiments:
NDM-1 Enzyme = NDM-1 Enzyme (Klebsiella pneumoniae, UniProt C7C422); experiment: Imipenem hydrolysis followed by UV absorbance slope, NDM-1 enzyme; assay type: biochemical; settings: for inhibition at 5 µM: C 5 μM
Description: (§1) These tests were conducted by comparing UV absorbance slope measurements of impenem alone, and then imipenem with the concerned azetidinimines at given concentrations in the presence of the enzyme. It was thus possible to monitor the hydrolysis of imipenem. Lower the value of the slope, the higher is the percentage of inhibition of the enzyme.

OXA-48 Enzyme = OXA-48 Enzyme (Klebsiella pneumoniae, UniProt Q6XEC0); experiment: Imipenem hydrolysis followed by UV absorbance slope, OXA-48 enzyme; assay type: biochemical; settings: for OXA-48 Enzyme Inhibition % / inhibition at 10 µM: C 10 μM; for OXA-48 Enzyme, effect in words: Inhibition %, IC50
OXA-48 Enzyme, sequence (Q6XEC0 23-265, looked up, species assumed): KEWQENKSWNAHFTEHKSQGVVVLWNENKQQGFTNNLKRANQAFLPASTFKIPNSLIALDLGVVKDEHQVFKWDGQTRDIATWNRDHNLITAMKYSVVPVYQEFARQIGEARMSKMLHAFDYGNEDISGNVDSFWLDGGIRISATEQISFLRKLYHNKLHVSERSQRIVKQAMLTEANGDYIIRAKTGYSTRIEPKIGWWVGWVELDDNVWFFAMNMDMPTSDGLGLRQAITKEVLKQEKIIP
Description: as §1

KPC Enzyme = KPC Enzyme (Klebsiella pneumoniae, UniProt Q9F663); experiment: Imipenem hydrolysis followed by UV absorbance slope, KPC enzyme; assay type: biochemical; settings: for inhibition at 10 µM / KPC Enzyme Inhibition %: C 10 μM; for inhibition at 5 µM: C 5 μM
KPC Enzyme, sequence (Q9F663 25-293, looked up): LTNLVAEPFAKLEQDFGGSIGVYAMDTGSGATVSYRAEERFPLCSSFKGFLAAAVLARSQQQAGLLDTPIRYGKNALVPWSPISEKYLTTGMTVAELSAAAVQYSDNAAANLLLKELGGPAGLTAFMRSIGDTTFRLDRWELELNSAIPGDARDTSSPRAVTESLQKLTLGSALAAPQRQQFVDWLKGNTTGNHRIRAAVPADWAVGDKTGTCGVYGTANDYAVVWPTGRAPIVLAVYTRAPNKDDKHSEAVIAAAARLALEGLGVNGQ
Description: as §1

[1] = Stability tests of imipenem with increasing concentrations of tested molecules
Description: as §1
Stability tests of imipenem with increasing concentrations of tested molecules of the present invention (T4#1, i.e. compound #1 of table 4; T4#7 i.e. compound #7 of table 4; T4#9 i.e. compound #9 of table 4; T4#2 i.e. compound #2 of table 4) were also conducted (Table 2).

NDM-1 Enzyme, sequence (C7C422 29-270, looked up, species assumed): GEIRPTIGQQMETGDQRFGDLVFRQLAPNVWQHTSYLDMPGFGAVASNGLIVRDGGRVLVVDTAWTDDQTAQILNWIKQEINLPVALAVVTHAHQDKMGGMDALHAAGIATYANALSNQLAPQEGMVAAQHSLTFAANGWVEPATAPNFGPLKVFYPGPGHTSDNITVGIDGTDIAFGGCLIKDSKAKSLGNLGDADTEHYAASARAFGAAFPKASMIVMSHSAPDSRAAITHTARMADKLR

Structure (SMILES) | IC50 (NDM-1 Enzyme) | IC50 (KPC Enzyme) | IC50 (OXA-48 Enzyme) | also measured
COc1ccc(C2C/C(=N\c3ccccc3)N2c2ccccc2)cc1 (stereo not shown) [drawing 77] | > 10 µM | – | – | inhibition at 20 µM (NDM-1 Enzyme; C 20 μM): 58%; OXA-48 Enzyme, effect in words (OXA-48 Enzyme): No reported effect; KPC Enzyme, effect in words (KPC Enzyme; Inhibition %, IC50): No reported effect
COc1ccc(N2/C(=N/c3ccccc3)CC2c2ccc(Cl)cc2)cc1 (stereo not shown) [drawing 76] | 2 to 5 µM | – | – | inhibition at 10 µM (NDM-1 Enzyme; C 10 μM): 96%; OXA-48 Enzyme IC50 (OXA-48 Enzyme): Solubility problems; inhibition at 50 µM (OXA-48 Enzyme; C 50 μM): 21%; inhibition at 50 µM (KPC Enzyme; C 50 μM): 44%
COc1ccc(N2/C(=N/c3ccccc3)CC2c2ccc3ccccc3c2)cc1 (stereo not shown) | 2.5 to 5 µM | 5 to 7 µM | 10 to 20 µM | inhibition at 5 µM (NDM-1 Enzyme): 94%; inhibition at 20 µM (OXA-48 Enzyme; C 20 μM): 94%; inhibition at 10 µM (KPC Enzyme): 99%
COc1ccc(N2/C(=N/c3ccccc3)CC2c2cc(Cl)cc(Cl)c2)cc1 (stereo not shown) | 2.5 to 5 µM | 2.5 to 5 µM | – | inhibition at 5 µM (NDM-1 Enzyme): 97%; inhibition at 5 µM (OXA-48 Enzyme; C 5 μM): 15%; inhibition at 5 µM (KPC Enzyme): 84%
COc1ccc(N2/C(=N/c3ccccc3)CC2c2ccccc2)cc1 (stereo not shown) [T4#1] | – | – | – | Slope (stability test of imipenem) ([1]; C 1 μM of tested molecule): 9; Slope (stability test of imipenem) ([1]; C 10 μM of tested molecule): 50; Slope (stability test of imipenem) ([1]; C 100 μM of tested molecule): 506
COc1ccc(C2C/C(=N\c3ccccc3)N2c2ccccc2)cc1 (stereo not shown) [T4#2, (E)-N-(4-(4-methoxyphenyl)-1-phenylazetidin-2-ylidene)aniline] | – | – | – | Slope (stability test of imipenem) ([1]; C 1 μM of tested molecule): 3; Slope (stability test of imipenem) ([1]; C 10 μM of tested molecule): 30; Slope (stability test of imipenem) ([1]; C 100 μM of tested molecule): 321
COc1ccc(N2/C(=N/c3ccccc3)CC2c2ccc(Cl)cc2)cc1 (stereo not shown) [T4#9, (E)-N-(4-(4-chlorophenyl)-1-(4-methoxyphenyl)azetidin-2-ylidene)aniline] | – | – | – | Slope (stability test of imipenem) ([1]; C 1 μM of tested molecule): 2; Slope (stability test of imipenem) ([1]; C 10 μM of tested molecule): 38; Slope (stability test of imipenem) ([1]; C 100 μM of tested molecule): 390
COc1cc(N2/C(=N/c3ccccc3)CC2c2ccccc2)cc(OC)c1OC (stereo not shown) [drawing 75] | > 50 µM | > 50 µM | – | inhibition at 50 µM (NDM-1 Enzyme; C 50 μM): 78%; OXA-48 Enzyme, effect in words (OXA-48 Enzyme): No reported effect
COc1ccc(N2/C(=N/c3ccccc3)CC2c2cccnc2)cc1 (stereo not shown) | > 100 µM | > 100 µM | – | inhibition at 100 µM (NDM-1 Enzyme; C 100 μM): 23%; OXA-48 Enzyme, effect in words (OXA-48 Enzyme): No reported effect; inhibition at 100 µM (KPC Enzyme; C 100 μM): 12%
COc1ccc(N2/C(=N/c3ccccc3)CC2c2ccccc2)cc1 (stereo not shown) [drawing 74] | 2 to 5 µM | ~7 µM | – | inhibition at 10 µM (NDM-1 Enzyme; C 10 μM): 90%; OXA-48 Enzyme, effect in words (OXA-48 Enzyme): No reported effect
[N-]=[N+]=NCc1ccc(C2C/C(=N\c3ccccc3)N2c2ccccc2)cc1 (stereo not shown) | – | – | > 50 µM | inhibition at 10 µM (NDM-1 Enzyme; C 10 μM): 100%; inhibition at 10 µM (KPC Enzyme): 89%
COc1ccc(N2/C(=N/c3ccc(Cl)cc3)CC2c2ccccc2)cc1 (stereo not shown) | – | 2 µM | > 50 µM | inhibition at 10 µM (NDM-1 Enzyme; C 10 μM): 100%
COc1ccc(N2/C(=N/c3ccccc3)CC2c2ccccc2)cc1OC (stereo not shown) | 5 to 10 µM | – | – | inhibition at 10 µM (OXA-48 Enzyme): 9%; inhibition at 10 µM (KPC Enzyme): 17%
COc1ccc(N2/C(=N/c3ccccc3)CC2c2ccccc2)cc1 (single isomer, unassigned) [Enantiomer 2] | < 5 µM | > 10 µM | – | inhibition at 10 µM (NDM-1 Enzyme; C 10 μM): 95%; KPC Enzyme Inhibition % (KPC Enzyme): 45%
COc1ccc(N2/C(=N/c3ccc(C(F)(F)F)cc3)CC2c2ccc(Cl)cc2)cc1 (stereo not shown) | – | 3.6 µM | > 50 µM | inhibition at 10 µM (NDM-1 Enzyme; C 10 μM): 100%
COc1ccc(N2/C(=N/c3ccccc3)CC2c2ccc(F)cc2)cc1 (stereo not shown) | – | – | – | inhibition at 10 µM (NDM-1 Enzyme; C 10 μM): 9%; OXA-48 Enzyme, effect in words (OXA-48 Enzyme): No reported effect; inhibition at 10 µM (KPC Enzyme): 10%
c1ccc(/N=C2\CC(c3ccccc3)N2c2ccc3c(c2)OCO3)cc1 (stereo not shown) | 5 µM | – | – | inhibition at 10 µM (OXA-48 Enzyme): 20%; inhibition at 10 µM (KPC Enzyme): 6%
COc1ccc(C2C/C(=N\c3ccccc3)N2c2ccc(OC)cc2)cc1 (stereo not shown) | 5 to 10 µM | – | – | inhibition at 10 µM (NDM-1 Enzyme; C 10 μM): 67%; inhibition at 10 µM (OXA-48 Enzyme): 3%; inhibition at 10 µM (KPC Enzyme): 7%
CCOc1ccc(N2/C(=N/c3ccccc3)CC2c2ccccc2)cc1 (stereo not shown) | 0.5 to 5 µM | < 5 µM | > 10 µM | inhibition at 5 µM (NDM-1 Enzyme): 100%; inhibition at 10 µM (OXA-48 Enzyme): 45%; inhibition at 5 µM (KPC Enzyme): 100%
COc1cc(N2/C(=N/c3ccccc3)CC2c2ccccc2)cc(OC)c1OC (stereo not shown) [T4#7, (E)-N-(4-phenyl-1-(3,4,5-trimethoxyphenyl)azetidin-2-ylidene)aniline] | – | – | – | Slope (stability test of imipenem) ([1]; C 1 μM of tested molecule): 0; Slope (stability test of imipenem) ([1]; C 10 μM of tested molecule): 10; Slope (stability test of imipenem) ([1]; C 100 μM of tested molecule): 174

Now from value to molecule, other results behind:

IC50 (NDM-1 Enzyme) | IC50 (KPC Enzyme) | IC50 (OXA-48 Enzyme) | Structure (SMILES) | also measured
2.5 µM | 6 µM | – | ClCc1ccc(C2C/C(=N\c3ccccc3)N2c2ccccc2)cc1 (stereo not shown) | OXA-48 Enzyme Inhibition % (OXA-48 Enzyme): No measurable effect at 10 μM
1.1 µM | 5 to 10 µM | > 50 µM | COc1ccccc1N1/C(=N/c2ccccc2)CC1c1ccc(Cl)cc1 (stereo not shown) | –
< 1 µM | < 10 µM | – | CSc1ccc(N2/C(=N/c3ccccc3)CC2c2ccccc2)cc1 (stereo not shown) | inhibition at 5 µM (NDM-1 Enzyme): 98%; inhibition at 10 µM (OXA-48 Enzyme): 15%; inhibition at 20 µM (KPC Enzyme; C 20 μM): 82%
0.6 µM | 2.4 µM | 7.4 µM | CCOc1ccc(N2/C(=N/c3ccc(OC)cc3)CC2c2ccc3ccccc3c2)cc1 (stereo not shown) | –
0.4 µM | 2.5 to 5 µM | > 50 µM | COc1cccc(N2/C(=N/c3ccccc3)CC2c2ccc(Cl)cc2)c1 (stereo not shown) | –
1.3 µM | 5 to 10 µM | > 50 µM | c1ccc(/N=C2\CC(c3ccccc3)N2c2ccc3c(c2)OCCO3)cc1 (stereo not shown) | –
2.6 µM | 1.3 µM | > 50 µM | CC(C)(C)OC(=O)COc1ccc(N2/C(=N/c3ccccc3)CC2c2ccc(Cl)cc2)cc1 (stereo not shown) | –
0.6 µM | > 50 µM | > 50 µM | O=C(O)COc1ccc(N2/C(=N/c3ccccc3)CC2c2ccc(Cl)cc2)cc1 (stereo not shown) | –
0.5 µM | 2.5 µM | 6.2 µM | CCOc1ccc(N2/C(=N/c3ccc(I)cc3)CC2c2ccc3ccccc3c2)cc1 (stereo not shown) | –
0.7 µM | 2.7 µM | 7.5 µM | COc1ccc(N2/C(=N/c3ccc(I)cc3)CC2c2ccc(Cl)cc2)cc1 (stereo not shown) | –
1.2 µM | 6 µM | – | c1ccc(/N=C2\CC(c3ccccc3)N2c2ccccc2)cc1 (stereo not shown) | OXA-48 Enzyme Inhibition % (OXA-48 Enzyme): No measurable effect at 10 μM
0.7 µM | > 50 µM | > 50 µM | O=C(O)c1ccc(C2C/C(=N\c3ccccc3)N2c2ccccc2)cc1 (stereo not shown) | –
4.8 µM | – | – | COC(=O)c1ccc(C2C/C(=N\c3ccccc3)N2c2ccccc2)cc1 (stereo not shown) | inhibition at 10 µM (OXA-48 Enzyme): 3.5%; inhibition at 10 µM (KPC Enzyme): 6%
1.8 µM | – | – | CC(C)(C)OC(=O)c1ccc(C2C/C(=N\c3ccccc3)N2c2ccccc2)cc1 (stereo not shown) | inhibition at 10 µM (OXA-48 Enzyme): 32%; inhibition at 10 µM (KPC Enzyme): 45%
1.3 µM | 5 to 10 µM | > 50 µM | COc1cccc(N2/C(=N/c3ccccc3)CC2c2ccccc2)c1 (stereo not shown) | –
0.5 µM | 2.9 µM | > 50 µM | COc1ccc(N2/C(=N/c3ccc(Cl)cc3)CC2c2ccc(Cl)cc2)cc1 (stereo not shown) | –
2.9 µM | – | > 50 µM | CC(C)(C)OC(=O)NCCOC(=O)c1ccc(C2C/C(=N\c3ccccc3)N2c2ccccc2)cc1 (stereo not shown) | –
3.6 µM | 5 to 7 µM | > 10 µM | Oc1ccc(N2/C(=N/c3ccccc3)CC2c2ccc(Cl)cc2)cc1 (stereo not shown) | –
< 5 µM | < 10 µM | – | COc1ccc(N2/C(=N/c3ccccc3)CC2c2ccccc2)cc1 (single isomer, unassigned) [Enantiomer 1] | NDM-1 Enzyme Inhibition % (NDM-1 Enzyme; C 10 μM): 97%; KPC Enzyme Inhibition % (KPC Enzyme): 70%
0.4 µM | – | – | c1ccc(COc2ccc(N3/C(=N/c4ccccc4)CC3c3ccccc3)cc2)cc1 (stereo not shown) | inhibition at 10 µM (OXA-48 Enzyme): 31%; inhibition at 10 µM (KPC Enzyme): 86%
1.1 µM | 3.3 µM | 9.2 µM | COc1ccc(N2/C(=N/c3ccc(I)cc3)CC2c2ccccc2)cc1 (stereo not shown) | –
0.8 µM | > 50 µM | > 10 µM | Oc1ccc(N2/C(=N/c3ccccc3)CC2c2ccccc2)cc1 (stereo not shown) | –
0.5 µM | 2.9 µM | 8.5 µM | COc1ccc(N2/C(=N/c3ccc(I)cc3)CC2c2cc(Cl)cc(Cl)c2)cc1 (stereo not shown) | –
